Test results published in patent publication EP0468497B1, “Peptide-antagonists of bombesin/GRP” (MERRELL PHARMACEUTICALS INC., priority 1990, dated 1992).
Non-standard residues stand in square brackets, D forms with d. Residues, ends and D or L forms follow the SMILES beside them. *: point of attachment. Palmitoyl = CCCCCCCCCCCCCCCC(=O)*; Lauroyl = CCCCCCCCCCCC(=O)*; Octanoyl = CCCCCCCC(=O)*

These compounds were tested against T1, bombesin receptor (Mus musculus, UniProt P21729) (assay: Affinity for the bombesin receptor by competition at the receptor for iodinated GRP (125I-GRP), pancreas membranes). Details: competition with 125I-GRP, 90 minutes at room temperature, read-out: Bombesin Receptor Binding (Example 5).
T1 construct: The pancreata from one or more mice were pooled, minced, and homogenized; from tissue; host or cells: mouse pancreas
Design: species or system mice
Experimental: The pancreata from one or more mice were pooled, minced, and homogenized in 50 mM HEPES (pH 7.4) containing 120 mM NaCl and 5 mM KCl at 4°C and centrifuged at 37,500 X g for 15 minutes. The pellet was resuspended in 50 mM HEPES (pH 7.4) containing 10 mM EDTA and 300 mM KCl and incubated for 30 minutes at 4°C. The suspension was centrifuged as above and the pellet was washed two times in 50 mM HEPES (pH 7.4) containing protease inhibitors (10 µM phenylmethylsulfonyl fluoride, 1 µM thiorphan, 40 µg/ml bacitracin, 10mM iodoacetic acid and 4 µg/ml leupeptin), and again centrifuged. The tissue was then resuspended in incubation buffer (1ml per 4 mg pancreas) and incubated for 15 minutes at room temperature, then 250 µl was added to each assay tube to commence the assay. The assay tubes contained incubation buffer consisting of 50 mM HEPES (pH 7.4), 0.5% BSA, protease inhibitors, 2 mM MnCl2, 1 µM somatostatin, and concentrations of ^125I-GRP and peptides as needed in a final volume of 500 µl. The assay was allowed to proceed to equilibrium for 90 minutes at room temperature. After this time, the contents of each tube was rapidly filtered over Whatman GF/B filters presoaked in 0.1% polyethyleneimine and the filters were rapidly washed three times with ice-cold 50 mM HEPES (pH 7.4). Filter-bound radioactivity was quantitated in a gamma counter. Competition of iodinated GRP binding by test compounds or standards was expressed as a percentage of ^125I-GRP binding in the absence of peptide. Affinity and maximal binding were calculated with Ligand (Biosoft, Cambridge, UK).

T1 sequence (P21729 whole entry): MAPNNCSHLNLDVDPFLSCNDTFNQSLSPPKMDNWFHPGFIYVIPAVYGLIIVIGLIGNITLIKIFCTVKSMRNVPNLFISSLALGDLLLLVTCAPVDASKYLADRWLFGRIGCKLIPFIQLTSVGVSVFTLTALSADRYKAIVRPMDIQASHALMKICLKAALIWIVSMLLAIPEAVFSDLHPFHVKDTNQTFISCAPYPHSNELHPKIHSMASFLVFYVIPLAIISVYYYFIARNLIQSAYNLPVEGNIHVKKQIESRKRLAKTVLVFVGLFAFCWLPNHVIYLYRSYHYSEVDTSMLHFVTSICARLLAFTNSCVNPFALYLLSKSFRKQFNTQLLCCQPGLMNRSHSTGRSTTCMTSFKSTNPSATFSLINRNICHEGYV

Row | Kd [nM] | SMILES
1 | ≤ 50 | CCCCCCCC(=O)N[C@@H](CCC(N)=O)C(=O)N[C@@H](Cc1c[nH]c2ccccc12)C(=O)N[C@@H](C)C(=O)N[C@H](C(=O)N[C@H](C)C(=O)N[C@@H](Cc1c[nH]cn1)C(=O)N[C@@H](CC(C)C)C(N)=O)C(C)C [Example 1, N-(n-Octanoyl)-Gln-Trp-Ala-Val-ala-His-Leu-NH2] (Octanoyl-QWAV[dA]HL-NH2)
2 | ≤ 500 | CCCCCCCCCCCC(=O)N[C@@H](CCC(N)=O)C(=O)N[C@@H](Cc1c[nH]c2ccccc12)C(=O)N[C@@H](C)C(=O)N[C@H](C(=O)N[C@H](C)C(=O)N[C@@H](Cc1c[nH]cn1)C(=O)N[C@@H](CC(C)C)C(N)=O)C(C)C [Example 2, N-(Lauroyl)-Gln-Trp-Ala-Val-ala-His-Leu-NH2] (Lauroyl-QWAV[dA]HL-NH2)
3 | ≤ 500 | CCCCCCCCCCCCCCCC(=O)N[C@@H](CCC(N)=O)C(=O)N[C@@H](Cc1c[nH]c2ccccc12)C(=O)N[C@@H](C)C(=O)N[C@H](C(=O)N[C@H](C)C(=O)N[C@@H](Cc1c[nH]cn1)C(=O)N[C@@H](CC(C)C)C(N)=O)C(C)C [Example 3, N-(Palmitoyl)-Gln-Trp-Ala-Val-ala-His-Leu-NH2] (Palmitoyl-QWAV[dA]HL-NH2)
4 | ≤ 50 | CCCCCCCC(=O)N[C@@H](CCC(N)=O)C(=O)N[C@@H](Cc1c[nH]c2ccccc12)C(=O)N[C@@H](C)C(=O)N[C@H](C(=O)N[C@H](C)C(=O)N[C@@H](Cc1c[nH]cn1)C(N)=O)C(C)C [Example 4, N-(n-Octanoyl)-Gln-Trp-Ala-Val-ala-His-NH2] (Octanoyl-QWAV[dA]H-NH2)
